Patent US10087170B2, “Compound, photosensitive resin composition including the same, and color filter” (SAMSUNG SDI CO., LTD., priority 2016, dated 2018)

Experiment: Evaluation 1: Solubility in organic solvents
Type: physicochemical
Conditions: 0.5 g compound, stirred at 25° C. and 100 rpm for 1 hour; for Amount of dissolved compound (wt %) Chloroform: solvent chloroform; for Amount of dissolved compound (wt %) Diacetone alcohol: solvent diacetone alcohol
Description: Solubility Evaluation Reference
X: solubility of less than 1 wt %
∘: solubility of greater than or equal to 1 wt % and less than 5 wt %
⊚: solubility of greater than or equal to 5 wt %

| SMILES | Amount of dissolved compound (wt %) Chloroform | Amount of dissolved compound (wt %) Diacetone alcohol |
| --- | --- | --- |
| CCN(CCOC(=O)NCC1CCCC(CNC(=O)OCCN(CC)c2ccc3c(-c4ccccc4S(=O)(=O)[O-])c4ccc(=[N+](CC)CC)cc-4oc3c2)C1)c1ccc2c(-c3ccccc3S(=O)(=O)[O-])c3ccc(=[N+](CC)CC)cc-3oc2c1 (stereo not drawn) [Chemical Formula 11] | ◯ (solubility of greater than or equal lo 1 wt % and less than 5 wt %) | ◯ (solubility of greater than or equal lo 1 wt % and less than 5 wt %) |
| CCN(CCOC(=O)CCCCCCC(=O)OCCN(CC)c1ccc2c(-c3ccccc3S(=O)(=O)[O-])c3ccc(=[N+](CC)CC)cc-3oc2c1)c1ccc2c(-c3ccccc3S(=O)(=O)[O-])c3ccc(=[N+](CC)CC)cc-3oc2c1 [Chemical Formula 10] | ◯ (solubility of greater than or equal lo 1 wt % and less than 5 wt %) | ◯ (solubility of greater than or equal lo 1 wt % and less than 5 wt %) |
| C=C(C)C(=O)OCCNC(=O)OCC[N+](CC)=c1ccc2c(-c3ccccc3S(=O)(=O)[O-])c3ccc(N(C)CCCCCCN(C)c4ccc5c(-c6ccccc6S(=O)(=O)[O-])c6ccc(=[N+](CC)CCOC(=O)NCCOC(=O)C(=C)C)cc-6oc5c4)cc3oc-2c1 [Chemical Formula 13] | ⊚ (solubility of greater than or equal to 5 wt %) | ⊚ (solubility of greater than or equal to 5 wt %) |
| C=C(C)C(=O)OCC[N+](CC)=c1ccc2c(-c3ccccc3S(=O)(=O)[O-])c3ccc(N(CC)CCCCCCN(CC)c4ccc5c(-c6ccccc6S(=O)(=O)[O-])c6ccc(=[N+](CC)CCOC(=O)C(=C)C)cc-6oc5c4)cc3oc-2c1 [Chemical Formula 18] | ⊚ (solubility of greater than or equal to 5 wt %) | ⊚ (solubility of greater than or equal to 5 wt %) |
| C=CC(=O)OCC[N+](CC)=c1ccc2c(-c3ccccc3S(=O)(=O)[O-])c3ccc(N(CC)CCCCCCN(CC)c4ccc5c(-c6ccccc6S(=O)(=O)[O-])c6ccc(=[N+](CC)CCOC(=O)C=C)cc-6oc5c4)cc3oc-2c1 [Chemical Formula 17] | ⊚ (solubility of greater than or equal to 5 wt %) | ⊚ (solubility of greater than or equal to 5 wt %) |
| C=C(C)C(=O)OCC[N+](CC)=c1ccc2c(-c3ccccc3S(=O)(=O)[O-])c3ccc(N(CC)CCCCCCN(CC)c4ccc5c(-c6ccccc6S(=O)(=O)[O-])c6ccc(=[N+](CC)CC)cc-6oc5c4)cc3oc-2c1 [Chemical Formula 20] | ⊚ (solubility of greater than or equal to 5 wt %) | ⊚ (solubility of greater than or equal to 5 wt %) |
| CC[N+](CC)=c1ccc2c(-c3ccccc3S(=O)(=O)[O-])c3ccc(N(C)CCCCCCN(C)c4ccc5c(-c6ccccc6S(=O)(=O)[O-])c6ccc(=[N+](CC)CC)cc-6oc5c4)cc3oc-2c1 [Chemical Formula 7] | ◯ (solubility of greater than or equal lo 1 wt % and less than 5 wt %) | ◯ (solubility of greater than or equal lo 1 wt % and less than 5 wt %) |
| CCN(CCOC(=O)NCCCCCCNC(=O)OCCN(CC)c1ccc2c(-c3ccccc3S(=O)(=O)[O-])c3ccc(=[N+](CC)CC)cc-3oc2c1)c1ccc2c(-c3ccccc3S(=O)(=O)[O-])c3ccc(=[N+](CC)CC)cc-3oc2c1 [Chemical Formula 9] | ◯ (solubility of greater than or equal lo 1 wt % and less than 5 wt %) | ◯ (solubility of greater than or equal lo 1 wt % and less than 5 wt %) |
| CCN(CC)c1ccc2c(-c3ccccc3S(=O)(=O)[O-])c3ccc(=[N+](CC)CC)cc-3oc2c1 [Chemical Formula X, reference compound] | X (solubility of less than 1 wt %) | X (solubility of less than 1 wt %) |
| C=C(C)C(=O)OCCNC(=O)OCC[N+](CC)=c1ccc2c(-c3ccccc3S(=O)(=O)[O-])c3ccc(N(CC)CCCCCCN(CC)c4ccc5c(-c6ccccc6S(=O)(=O)[O-])c6ccc(=[N+](CC)CCOC(=O)NCCOC(=O)C(=C)C)cc-6oc5c4)cc3oc-2c1 [Chemical Formula 14] | ⊚ (solubility of greater than or equal to 5 wt %) | ⊚ (solubility of greater than or equal to 5 wt %) |
| CC[N+](CC)=c1ccc2c(-c3ccccc3S(=O)(=O)[N-]S(=O)(=O)C(F)(F)F)c3ccc(N(C)CCCCCCN(C)c4ccc5c(-c6ccccc6S(=O)(=O)[N-]S(=O)(=O)C(F)(F)F)c6ccc(=[N+](CC)CC)cc-6oc5c4)cc3oc-2c1 [Chemical Formula 12] | ◯ (solubility of greater than or equal lo 1 wt % and less than 5 wt %) | ◯ (solubility of greater than or equal lo 1 wt % and less than 5 wt %) |
| CCN(CCCCCCN(CC)c1ccc2c(-c3ccccc3S(=O)(=O)[O-])c3ccc(=[N+](CC)CC)cc-3oc2c1)c1ccc2c(-c3ccccc3S(=O)(=O)[O-])c3ccc(=[N+](CC)CC)cc-3oc2c1 [Chemical Formula 8] | ◯ (solubility of greater than or equal lo 1 wt % and less than 5 wt %) | ◯ (solubility of greater than or equal lo 1 wt % and less than 5 wt %) |
| CCN(CCOC(=O)NC1CCC(CC2CCC(NC(=O)OCCN(CC)c3ccc4c(-c5ccccc5S(=O)(=O)[O-])c5ccc(=[N+](CC)CC)cc-5oc4c3)CC2)CC1)c1ccc2c(-c3ccccc3S(=O)(=O)[O-])c3ccc(=[N+](CC)CC)cc-3oc2c1 (stereo not drawn) [Chemical Formula 16] | ◯ (solubility of greater than or equal lo 1 wt % and less than 5 wt %) | ◯ (solubility of greater than or equal lo 1 wt % and less than 5 wt %) |
| C=C(C)C(=O)OCCNC(=O)OCC[N+](CC)=c1ccc2c(-c3ccccc3S(=O)(=O)[O-])c3ccc(N(CC)CCCCCCN(CC)c4ccc5c(-c6ccccc6S(=O)(=O)[O-])c6ccc(=[N+](CC)CC)cc-6oc5c4)cc3oc-2c1 [Chemical Formula 21] | ⊚ (solubility of greater than or equal to 5 wt %) | ⊚ (solubility of greater than or equal to 5 wt %) |
| C=CC(=O)OCC[N+](CC)=c1ccc2c(-c3ccccc3S(=O)(=O)[O-])c3ccc(N(CC)CCCCCCN(CC)c4ccc5c(-c6ccccc6S(=O)(=O)[O-])c6ccc(=[N+](CC)CC)cc-6oc5c4)cc3oc-2c1 [Chemical Formula 19] | ⊚ (solubility of greater than or equal to 5 wt %) | ⊚ (solubility of greater than or equal to 5 wt %) |
